Laboratory results published in patent publication US10006079B2, “Method for establishing the anti-diabetic potential of bitter melon” (Glykon Technologies Group, LLC, priority 2013, dated 2018).

Experiments:
Normal Rats = experiment: Hypoglycemic activity of bitter melon extracts in normal rats (blood glucose after oral glucose challenge); type: in vivo, Wistar Albino male rats; settings: for hypoglycemia in normal animals (glucose <70 mg/dL in this model): 50 mg/kg
Description: (§1) This and related experiments subsequently were published (Clouatre et al., 2011.) Wistar Albino male rats 12 weeks of age were obtained from St John's Pharmacy College Animal House, India and handled according to institutional practices. […] All rats were fed a standard rat chow diet ad libitum from Sai Durga Feed, Bangalore; water also was supplied ad libitum. Following 7 days acclimatization, one half of the rats were fasted for 24 hours and then injected with freshly prepared STZ in citrate buffer [[…]] (45 mg/kg, i.p). After one week, rats with marked hyperglycemia (fasting blood glucose >300 mg/dL) were used as the diabetic rats.
(§2) Extracts 1-4 were produced and preserved via different methods attempting to retain efficacies reported for macerated fresh fruit preparations. EX-1 was a vacuum-dried powder of the macerated extract of fresh fruit (˜25:1). EX-2 was a freeze-dried powder of the macerated extract of fresh fruit (˜25:1). EX-3 was a spray-dried powder of the macerated extract of fresh fruit (˜25:1). EX-4 was a vacuum-dried powder of the macerated extract of fresh fruit adsorbed onto powdered vacuum-dried fresh fruit (˜15:1). Dosages of the extracts (mg/kg bodyweight/day) were 50 and 250 mg/kg as indicated. After an overnight fast, the extract samples suspended in 5% gum acacia were administered to the animals by gastric intubations with a syringe.
(§3) For test purposes, glucose was given orally by intubation as a 40% solution (1 g/kg body wt). Blood samples following the glucose challenge were collected for the measurement of blood glucose from the tail vein at 0, 1, 2, 3 and 4 hrs. The blood glucose level was determined by using an electronic glucometer (Accu Check, Roche Diagnostic).
First, the hypoglycemic activity of bitter melon extracts was studied in normal rats.

[1] = tested on: streptozotocin-induced diabetic rats; experiment: Anti-hyperglycemic activity of bitter melon extracts in streptozotocin-induced diabetic rats (blood glucose); type: in vivo, Wistar Albino male rats; settings: extracts 250 mg/kg, metformin 150 mg/kg
Description: as §1, §2, §3
Next, the anti-hyperglycemic activity of bitter melon extracts was studied in streptozotocin-induced diabetic rats described above.

CN(C)C(=N)N=C(N)N [Metformin, metformin]
hypoglycemia in normal animals (glucose <70 mg/dL in this model) (Normal Rats): resulted in hypoglycemia | Blood Glucose Level, Treatment +1 hr (Normal Rats; 50 mg/kg oral, +1 hr): 85.5 ± 1.8 mg % | Blood Glucose Level, Treatment +2 hr (Normal Rats; 50 mg/kg oral, +2 hr): 73.5 ± 1.2 mg % | percent reduction in blood sugar level compared with initial glucose value (0 h) (Normal Rats; 50 mg/kg oral, +2 hr): (34.9) percent | Blood Glucose Level, Treatment +3 hr (Normal Rats; 50 mg/kg oral, +3 hr): 66.5 ± 1.2 mg % | percent reduction in blood sugar level compared with initial glucose value (0 h) (Normal Rats; 50 mg/kg oral, +3 hr): (46.4) percent | Blood Glucose Level, Treatment +4 hr (Normal Rats; 50 mg/kg oral, +4 hr): 52.5 ± 0.7 mg % | percent reduction in blood sugar level compared with initial glucose value (0 h) (Normal Rats; 50 mg/kg oral, +4 hr): (53.5) percent | Blood Glucose Level, Initial (0 hr) (Normal Rats; 50 mg/kg oral, initial value 0 hr): 93.3 ± 1.3 mg % | hypoglycemia in normal animals (glucose <70 mg/dL in this model) (Normal Rats; listed as metformin): led to hypoglycemia | reduced blood glucose, percent ([1]; diabetic animals, at 4 hours): 53.52 percent (mg %) | Blood Glucose Level, Treatment +1 hr ([1]; diabetic rats, +1 hr): 271.6 ± 4.0 mg % | Blood Glucose Level, Treatment +2 hr ([1]; diabetic rats, +2 hr): 214.4 ± 3.2 mg % | percent reduction of blood sugar level compared with initial level of blood glucose (0 h) ([1]; diabetic rats, +2 hr): (34.9) percent | Blood Glucose Level, Treatment +3 hr ([1]; diabetic rats, +3 hr): 176.0 ± 6.7 mg % | percent reduction of blood sugar level compared with initial level of blood glucose (0 h) ([1]; diabetic rats, +3 hr): (46.4) percent | Blood Glucose Level, Treatment +4 hr ([1]; diabetic rats, +4 hr): 153.0 ± 3.3 mg % | percent reduction of blood sugar level compared with initial level of blood glucose (0 h) ([1]; diabetic rats, +4 hr): (53.5) percent | Blood Glucose Level, Initial (0 hr) ([1]; diabetic rats, initial value 0 hr): 329.2 ± 5.3 mg %
